Where two headings read alike, the source gives them in different places.
What was measured:
GHSR1a receptor = biological target: T1, GHSR1a receptor (Homo sapiens, UniProt Q92847); test: 125I-Ghrelin binding assay
T1 construct: expressed in transfected cells; host or cells: HEK293 (membranes)
Description: Plasmid DNA containing the GHSR1a receptor (12.5 ug/dish) in 0.675 ml DMEM was transfected into the cells by mixing with 180 ul PolyFect, 15 min later mixing in 2.25 ml 10% CS/DMEM, and transferring the mixture into the dish. At 16-18 h post transfection, medium was replaced with 25 ml fresh 10% FCS/1% PSG/DMEM to each dish for another 18-20 h. At approximately 48 hours post-transfection, cells were harvested in ice-cold membrane buffer (20 mM HEPES, 6 mM MgCl2, 1 mM EDTA, pH to 7.2) using a cell scraper, and pelleted by centrifugation.
Pelleted cells were added to a nitrogen cavitation chamber and 900 bar of pressure applied for 30 min. The pressure was slowly released the cavitated cells collected in 50 ml falcon tubes. The tubes were centrifuged at 1000 rpm, 4° C. for 10 min, and the supernatant collected. This centrifugation and collection was repeated two more times until the supernatant was free of precipitate (membranes are still in suspension). The supernatant was poured into a 50 ml centrifuge tube and centrifuged at 10.000 rpm, 4° C. for 20 min. The supernatant was discarded and the pellet re-suspended in 750 μl membrane binding buffer using a chilled 1 ml syringe with 25G5/8 needle to re-suspend membranes. The protein concentration was determined using the BioRad Protein Assay Dye Reagent according to the manufacturers instructions. The protein concentration was adjusted to 5 mg/ml and aliquots snap-frozed and stored at −80 C until use.
Membranes were thawed rapidly; diluted with binding buffer (25 mM Hepes+5 mM MgCl2, 1 mM CaCl2, 2.5 mM EDTA and 0.2% BSA) to a protein concentration of 0.8 ug/30 ul and placed on ice. 96-well plates (U-bottom wells) were prepared with serial dilutions (8 doses, 40 ul/w) of the test compounds. Membranes (30 uL/well) were then added, and incubated with test ligands for 30 min at room temperature with shaking. […] Binding was terminated by filtration through GF/B filters (presoaked with 0.1% polyethylenimine) with a Brandel 96-well harvester. The filters were washed with ice-cold binding buffer (150 ml/plate) and allowed to air-dry for 30 min. 50 ul MicroScient-20 cocktail was added to each dried well, the plates were sealed, and counted for 2 min/well using a TopCount scintillation counter (Packard).

Ghrelin receptor = Ghrelin receptor (Homo sapiens, UniProt Q92847); test: Receptor Selection and Amplification Technology (R-SAT) assay; assay type: cell-based; design: expressed in transfected cells; host or cells: NIH3T3; conditions: for Emax: read-out: RSAT Eff(%)
Sequence of Ghrelin receptor (Q92847 whole entry): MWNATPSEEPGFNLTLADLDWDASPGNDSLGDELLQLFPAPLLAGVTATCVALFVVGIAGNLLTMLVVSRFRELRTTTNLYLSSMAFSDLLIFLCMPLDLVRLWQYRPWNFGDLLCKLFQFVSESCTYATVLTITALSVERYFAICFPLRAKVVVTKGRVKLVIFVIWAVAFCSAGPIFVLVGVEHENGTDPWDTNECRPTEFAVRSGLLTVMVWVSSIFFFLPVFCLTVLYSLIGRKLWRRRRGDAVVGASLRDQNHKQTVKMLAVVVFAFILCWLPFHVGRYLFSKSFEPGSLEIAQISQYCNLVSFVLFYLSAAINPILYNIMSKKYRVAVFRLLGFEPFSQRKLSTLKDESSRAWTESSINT

[1] = Binding pKi, displacement of 125I-ghrelin (0.053 nM), membranes of HEK293 cells transfected with GHSR1a, Cheng-Prussoff, '—' not defined
[2] = […], '—' not defined (nd used separately), read-out: RSAT pIC50 (converted)
[3] = displacement of 125I-ghrelin (0.053 nM), membranes of HEK293 cells transfected with GHSR1a, Cheng-Prussoff, '—' not defined, read-out: Binding pKi (converted)
[4] = negative logarithm of ligand concentration causing 50% inhibition of constitutive receptor response, transfected NIH3T3 cells, '—' not defined (nd used separately), read-out: RSAT pIC50 (converted)
[5] = percent inhibition at saturating ligand, normalized to reference ligand Substance P analog = 100%

T1 sequence (Q92847 whole entry): as above

SMILES	Ki (GHSR1a receptor; [1])	IC50 (Ghrelin receptor; [2])	Emax (Ghrelin receptor)	Ki (GHSR1a receptor; [3])	IC50 (Ghrelin receptor; [4])	Emax (Ghrelin receptor; [5])	further results
CC(=O)c1cn(CCCN2CCC(c3nc4ccccc4s3)CC2)c2c(Cl)cccc12	398 nM	5.01 nM	117%				
COc1cccc2c(C(=O)Cc3ccccc3)cn(CCCN3CCN(CCOc4ccc(Cl)cc4)CC3)c12		7.94 nM	82%	3160 nM			
COc1cccc2c(C(=O)c3ccccc3)cn(CCCN3C4CCC3CC(CC(=O)c3ccccc3)C4)c12 (stereo not shown)		5.01 nM	101%	100 nM			
CCCOC1CCN(CCCn2cc(C(=O)CC)c3cc(Br)ccc32)CC1	10000 nM	158 nM	90%				
COc1cccc2c(C(C)=O)cn(CC(C)CN3C4CCC3CC(CC(=O)c3ccc(Cl)cc3)C4)c12 (stereo not shown)			16%	398 nM			
COc1cccc2c(C(=O)NCc3cccc(C)c3)cn(CCCN3CCCN(Cc4ccc(F)cc4)CC3)c12	100 nM	15.8 nM	129%				
COc1cccc2c(C(=O)c3ccccc3)cn(CCCN3CCC(Oc4ccccc4Cl)CC3)c12		6.31 nM	79%	158 nM			
COc1cccc2c(C(=O)NCc3cccc(C)c3)cn(CCCN3CCN(Cc4ccc(Cl)cc4Cl)CC3)c12	1000 nM	25.1 nM	110%				
COc1cccc2c(C(C)=O)cn(CC(C)CN3CCCN(Cc4ccccc4Cl)CC3)c12 (stereo not shown)				100 nM	10 nM	123%	
COc1cccc2c(C(C)=O)cn(CCCN3CCN(c4ncccc4C(F)(F)F)CC3)c12				1000 nM	6.31 nM	108%	
COc1cccc2c(C(=O)NCc3cccc(Cl)c3)cn(CCCN3C4CCC3CC(Oc3ccc(Cl)cc3)C4)c12 (stereo not shown)				251 nM	50.1 nM		RSAT Eff(%) (Ghrelin receptor; [5]): 97%
COc1cccc2c(C#N)cn(CCCN3C4CCC3CC(CC(=O)c3ccc(Cl)cc3)C4)c12 (stereo not shown)				79.4 nM		12%	
COc1cccc2c(C(=O)NCc3cccc(Cl)c3)cn(CCCN3CCC(Oc4cccc(Cl)c4)CC3)c12			100%	63.1 nM	7.94 nM		
COc1cccc2c(C(=O)NCc3cccc(C)c3)cn(CCCN3C4CCC3CC(CC(=O)c3ccccc3)C4)c12 (stereo not shown)	2 nM	1.58 nM	106%				
CC(=O)c1cn(CCCN2[C@@H]3CC[C@H]2C[C@@H](Oc2ccc(Cl)cc2)C3)c2ccccc12	7940 nM	398 nM	107%				
COc1cccc2c(C#N)cn(CCCN3C4CCC3CC(CCc3ccccc3)C4)c12 (stereo not shown)			104%	25.1 nM	2 nM		
CCc1cccc2c(C(C)=O)cn(CCCN3C4CCC3CC(CCc3ccc(Cl)cc3)C4)c12 (stereo not shown)			95%	100 nM	20 nM		
COc1cccc2c(C(=O)C3CC3)cn(CCCN3C4CCC3CC(Oc3ccc(Cl)cc3)C4)c12 (stereo not shown)	158 nM	3.98 nM	86%				
CCCCCCC1CCN(CCCn2cc(C(C)=O)c3ccccc32)CC1				6310 nM	200 nM	94%	
CCc1cccc2c(C(C)=O)cn(CCCN3C4CCC3CC(CCc3ccccc3)C4)c12 (stereo not shown)			103%	126 nM	3.98 nM		
O=C(NCc1cccc(Cl)c1)c1cn(CCCN2CCC(Oc3ccc(F)cc3)CC2)c2ccccc12 [drawing 659]				1580 nM			RSAT Eff(%) (Ghrelin receptor): 67%
COc1cccc2c(C#N)cn(CCCN3CCC(Oc4cccc(Cl)c4)CC3)c12				39.8 nM	1260 nM	162%	
COc1cccc2c(C(=O)Cc3ccccc3)cn(CCCN3C4CCC3CC(CCc3ccccc3)C4)c12 (stereo not shown)		0.251 nM	141%	10 nM			
CC(=O)c1cn(CCCN2CCC(c3nc4ccccc4s3)CC2)c2c(Br)cccc12				200 nM	10 nM	81%	

SMILES	Ki (GHSR1a receptor; [1])	IC50 (Ghrelin receptor; [2])	Emax (Ghrelin receptor)	Ki (GHSR1a receptor; [3])	IC50 (Ghrelin receptor; [4])	Emax (Ghrelin receptor; [5])	further results
CCCCC[C@H]1C[C@H]2CC[C@@H](C1)N2CCCn1cc(C(=O)NCC(C)C)c2cccc(OC)c21			135%	79.4 nM	7.94 nM		
CCCCC[C@H]1C[C@H]2CC[C@@H](C1)N2CCCn1cc(C(C)=O)c2ccccc21	2510 nM	100 nM	118%				
COc1cccc2c(C(=O)C3CC3)cn(CCCN3CCCN(Cc4ccc(F)cc4)CC3)c12	7.94 nM	1.26 nM	92%				
CC(=O)c1cn(CCCN2CCC(CCC(C)C)CC2)c2ccccc12				3980 nM	398 nM	73%	
COc1cccc2c(C(=O)NCc3cccc(Cl)c3)cn(CCCNC3Cc4ccccc4C3)c12	63.1 nM	794 nM	133%				
CC(=O)c1cn(CCCN2CCC(Oc3ccccc3Cl)CC2)c2c(Br)cccc12				126 nM	12.6 nM	96%	
COc1cccc2c(C(C)=O)cn(CCCN3CCC(Oc4ccc(Cl)cc4)CC3)c12 [drawing 300]				126 nM	7.94 nM		RSAT Eff(%) (Ghrelin receptor; [5]): 129%
COc1cccc2c(C(=O)NCc3cccc(Cl)c3)cn(CCCN3C4CCC3CC(CCc3ccccc3)C4)c12 (stereo not shown)	7.94 nM	1 nM	115%				
COc1cccc2c(C#N)cn(CCCN3CCCC(Cc4ccccc4Cl)C3)c12 (stereo not shown)				200 nM		62%	
CCCCC1CCN(CCCn2cc(C(=O)NCc3cccc(Cl)c3)c3cccc(OC)c32)CC1			94%				Ki (GHSR1a receptor; Binding pKi): 50.1 nM; IC50 (Ghrelin receptor; RSAT pIC50): 3.98 nM
COc1cccc2c(C(=O)NCc3cccc(C)c3)cn(CCCN3CCC(Oc4ccc(Cl)cc4)CC3)c12	126 nM	7.94 nM	115%				
COc1cccc2c(C(C)=O)cn(CCCN3CCN(c4c(C)cccc4C)CC3)c12				1000 nM	6.31 nM	107%	
CC(=O)c1cn(CCCN2C3CCC2CC(Oc2ccccc2Cl)C3)c2c(C#N)cccc12 (stereo not shown)				200 nM	20 nM	83%	
COc1cccc2c(C(C)=O)cn(CCCN3C4CCC3CC(OCC3CC3)C4)c12 (stereo not shown)	1580 nM	50.1 nM	113%				
COc1cccc2c(C(=O)C3CC3)cn(CCCN3C4CCC3CC(CC(=O)c3ccc(Cl)cc3)C4)c12 (stereo not shown)	39.8 nM	7.94 nM	70%				
CC(=O)c1cn(CCCN2C3CCC2CC(CCc2ccccc2)C3)c2c(Br)cccc12 (stereo not shown)				79.4 nM	7.94 nM	107%	
COc1cccc2c(C(C)=O)cn(CCCN3CCC(C(=O)c4ccccc4)CC3)c12				2000 nM	39.8 nM		RSAT Eff(%) (Ghrelin receptor; [5]): 98%
COc1cccc2c(C(=O)Cc3ccccc3)cn(CCCN3C4CCC3CC(CC(=O)c3ccc(Cl)cc3)C4)c12 (stereo not shown)		12.6 nM	167%	31.6 nM			
COC(=O)c1cn(CCCN2CCC(Oc3ccc(F)cc3)CC2)c2ccccc12				3160 nM	2000 nM	87%	
CCCCC1CCN(CCCn2cc(C(C)=O)c3cccc(C)c32)CC1				316 nM	7.94 nM	78%	
COc1cccc2c(C(=O)NCc3cccc(Cl)c3)cn(CCCN3CCN(CCOc4ccccc4)CC3)c12	6.31 nM	79.4 nM	101%				
CC(=O)c1cn(CCCN2C3CCC2CC(Oc2ccc(F)cc2)C3)c2c(C#N)cccc12 (stereo not shown)				100 nM	50.1 nM	93%	
CC(=O)c1c(C)n(CCCN2C3CCC2CC(Oc2ccc(F)cc2)C3)c2c(Br)cccc12 (stereo not shown)				1580 nM		1%	
